Reference: publication PMC6100240, “Discovery of 2-(4-Substituted-piperidin/piperazine-1-yl)-N-(5-cyclopropyl-1H-pyrazol-3-yl)-quinazoline-2,4-diamines as PAK4 Inhibitors with Potent A549 Cell Proliferation, Migration, and Invasion Inhibition Activity” (Molecules : A Journal of Synthetic Chemistry and Natural …, 2018)

What was measured:
[1] = test system: human gastric cancer cells; parameters: method as in PMID 22085492; settings: cited from earlier work
[2] = biological target: T1, PAK4 (Homo sapiens, UniProt O96013); assay: PAK4 HTRF kinase assay; format: biochemical
T1 construct: purchased Sigma-Aldrich
T1 sequence (O96013 whole entry): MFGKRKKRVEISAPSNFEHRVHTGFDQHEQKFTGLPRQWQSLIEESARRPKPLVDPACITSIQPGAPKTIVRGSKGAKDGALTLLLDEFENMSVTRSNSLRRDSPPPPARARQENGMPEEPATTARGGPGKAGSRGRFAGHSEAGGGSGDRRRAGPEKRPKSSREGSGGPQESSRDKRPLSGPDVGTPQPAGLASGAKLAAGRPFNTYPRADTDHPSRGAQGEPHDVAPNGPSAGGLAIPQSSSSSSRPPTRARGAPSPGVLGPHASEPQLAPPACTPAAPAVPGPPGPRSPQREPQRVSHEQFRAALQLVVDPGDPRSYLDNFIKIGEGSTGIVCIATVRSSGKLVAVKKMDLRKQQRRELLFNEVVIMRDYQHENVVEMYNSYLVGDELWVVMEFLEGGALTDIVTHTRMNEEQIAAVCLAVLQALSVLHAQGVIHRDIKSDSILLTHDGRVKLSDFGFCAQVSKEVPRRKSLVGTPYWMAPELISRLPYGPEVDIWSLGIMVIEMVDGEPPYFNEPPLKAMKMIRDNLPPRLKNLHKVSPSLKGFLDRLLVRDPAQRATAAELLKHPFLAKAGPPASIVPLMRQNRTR

[3] = test system: HT1080; assay: MTT cell proliferation assay, HT1080; format: cell-based, human; settings: for IC50: Homo sapiens, HT-1080, 50% cell growth inhibition after 24 h of drug exposure, MTT assay; for Activity against HT1080 (off-target check): growth not dependent on PAK4
Experimental: (§1) Meanwhile, the tumor cell line HT1080, whose growth is not dependent on PAK4, was used to test the potential off-target effects of the potent PAK4 inhibitors.
(§2) The human pulmonary carcinoma cell line A549 and the human fibrosarcoma cell line HT1080 were cultured in RPMI-1640 medium containing 10% fetal bovine serum (FBS), at 37 °C in a humidified atmosphere containing 5% CO2.
(§3) The in vitro antiproliferative activity of some of the target compounds was determined by the MTT assay (Amresco, Seattle, WA, USA). A suspension of 100 µL human cancer cells (5 × 10^4/mL) was plated in a 96-well cell culture plate and incubated with 5% CO2 at 37 °C for 24 h. Then cells were exposed to various concentrations of compounds and further cultured for 24 h. After that, MTT was added and absorbance was measured at 490 nm using a EL × 800 microplate reader (BioTek, Winooski, VT, USA). Dose-response curves were plotted to determine the IC50 values using GraphPad Prism 5.0. Each IC50 value was expressed as mean ± standard deviation.

[4] = test system: A549 cells; assay: Transwell cell migration assay; format: cell-based, human; settings: 24 h
Experimental: (§4) We next examined the effects of compound 8d on the cycle progression of A549. Cells were treated with compound 8d at varying concentrations (1.0, 3.0, 9.0 μM) and vehicle (dimethyl sulfoxide−DMSO) for 24 h, and subjected to flow cytometry analysis to determine the distribution of cells in various phases of the cell cycle. […] PAK4 activity is involved in cytoskeleton dynamics and cancer cell migration and invasion; therefore, the inhibitory effect of 8d on A549 cell migration and invasion were analyzed.
(§5) Cell migration assays were evaluated in transwell chambers (Corning Incorporated, Corning, NY, USA). Cell invasion assays were evaluated in Matrigel invasion chambers (Becton-Dickinson). First, 0.5 × 10^5 tumor cells were plated in the top chamber with RPMI-1640 medium without FBS. Test compound was added to the bottom chamber with 500 µL medium containing 20% FBS. After incubation for 24 h at 37 °C, the cells were fixed in 100% methanol and stained with 0.1% crystal violet, then washed with PBS; the cells that had not migrated from the top surface of the filters were removed with cotton. Migrated cells were quantified by counting them in three randomly selected fields on the diameter under a microscope at 200× magnification

[5] = test system: A549 cells; assay: Matrigel cell invasion assay; format: cell-based, human; settings: A549, Matrigel chamber, 24 h
Experimental: as §4, §5

[6] = test system: A549 cell line; assay: MTT cell proliferation assay, A549; format: cell-based; settings: Homo sapiens, 50% cell growth inhibition after 24 h of drug exposure
Experimental: as §1, §2, §3

Compound	melting point [°C]	IC50 [2] [nM]	other results
COc1cccc(Nc2nc(NCC3CCCO3)c3ccccc3n2)c1 (centres unmarked) [LCH-7749944, N^2-(3-methoxyphenyl)-N^4-((tetrahydrofuran-2-yl)methyl)quinazoline-2,4-diamine]			Effect on proliferation, migration, and invasion [1]: effectively suppressed
Clc1cccc(N2CCN(c3nc(Nc4cc(C5CC5)[nH]n4)c4cc(Cl)ccc4n3)CC2)c1 [Compound 7f, 6-Chloro-2-(4-(3-chlorophenyl)piperazin-1-yl)-N-(5-cyclopropyl-1H-pyrazol-3-yl)quinazolin-4-amine]	229.9 to 232.6	490	
Clc1ccc2nc(N3CCN(c4ccc(Br)cc4)CC3)nc(Nc3cc(C4CC4)[nH]n3)c2c1 [Compound 7c, 2-(4-(4-Bromophenyl)piperazin-1-yl)-6-chloro-N-(5-cyclopropyl-1H-pyrazol-3-yl)quinazolin-4-amine]	248.7 to 251.9	100	
Clc1ccc2nc(N3CCN(c4ccccn4)CC3)nc(Nc3cc(C4CC4)[nH]n3)c2c1 [Compound 8a, 6-Chloro-N-(5-cyclopropyl-1H-pyrazol-3-yl)-2-(4-(pyridin-2-yl)piperazin-1-yl)quinazolin-4-amine]	184.4 to 186.7	310	
Clc1ccc2nc(N3CCN(c4ccccc4)CC3)nc(Nc3cc(C4CC4)[nH]n3)c2c1 [Compound 7a, 6-Chloro-N-(5-cyclopropyl-1H-pyrazol-3-yl)-2-(4-phenylpiperazin-1-yl)quinazolin-4-amine]	239.5 to 240.8	850	
COc1ccc(N2CCN(c3nc(Nc4cc(C5CC5)[nH]n4)c4cc(Cl)ccc4n3)CC2)cc1 [Compound 7g, 6-Chloro-N-(5-cyclopropyl-1H-pyrazol-3-yl)-2-(4-(4-methoxyphenyl)piperazin-1-yl)quinazolin-4-amine]	237.1 to 239.5	300	
Clc1ccc2nc(N3CCN(c4ccc(Br)cn4)CC3)nc(Nc3cc(C4CC4)[nH]n3)c2c1 [Compound 8d, 2-(4-(5-Bromopyridin-2-yl)piperazin-1-yl)-6-chloro-N-(5-cyclopropyl-1H-pyrazol-3-yl)quinazolin-4-amine]	270.5 to 272.8	60	IC50 [3]: 21500 nM; Activity against HT1080 (off-target check) [3]: negligible activity; Effect on cell migration [4]: decreased the migration and invasion potential; Effect on cell invasion [5]: decreased the migration and invasion potential; IC50 [6]: 4680 nM
COc1cccc(N2CCN(c3nc(Nc4cc(C5CC5)[nH]n4)c4cc(Cl)ccc4n3)CC2)c1 [Compound 7h, 6-Chloro-N-(5-cyclopropyl-1H-pyrazol-3-yl)-2-(4-(3-methoxyphenyl)piperazin-1-yl)quinazolin-4-amine]	199.9 to 201.8	690	
Cc1ccc(N2CCN(c3nc(Nc4cc(C5CC5)[nH]n4)c4cc(Cl)ccc4n3)CC2)cc1 [Compound 7b, 6-Chloro-N-(5-cyclopropyl-1H-pyrazol-3-yl)-2-(4-(p-tolyl)piperazin-1-yl)quinazolin-4-amine]	204.9 to 207.5	240	
FC(F)(F)c1ccc(N2CCN(c3nc(Nc4cc(C5CC5)[nH]n4)c4cc(Cl)ccc4n3)CC2)nc1 [Compound 8e, 6-Chloro-N-(5-cyclopropyl-1H-pyrazol-3-yl)-2-(4-(5-(trifluoromethyl)pyridin-2-yl)piperazin-1-yl)quinazol-in-4-amine]	247.6 to 259.6	220	
Clc1ccc2nc(N3CCN(c4ncc(Br)cn4)CC3)nc(Nc3cc(C4CC4)[nH]n3)c2c1 [Compound 9c, 2-(4-(5-Bromopyrimidin-2-yl)piperazin-1-yl)-6-chloro-N-(5-cyclopropyl-1H-pyrazol-3-yl)quinazolin-4-amine]	280.6 to 282.7	68	IC50 [3]: 39300 nM; Activity against HT1080 (off-target check) [3]: negligible activity; IC50 [6]: 4750 nM
Cc1ccc(N2CCN(c3nc(Nc4cc(C5CC5)[nH]n4)c4cc(Cl)ccc4n3)CC2)nc1 [Compound 8c, 6-Chloro-N-(5-cyclopropyl-1H-pyrazol-3-yl)-2-(4-(5-methylpyridin-2-yl)piperazin-1-yl)quinazolin-4-amine]	263 to 265.4	87	
Clc1ccc2nc(N3CCN(c4ncccn4)CC3)nc(Nc3cc(C4CC4)[nH]n3)c2c1 [Compound 9a, 6-Chloro-N-(5-cyclopropyl-1H-pyrazol-3-yl)-2-(4-(pyrimidin-2-yl)piperazin-1-yl)quinazolin-4-amine]	249.3 to 250.5	380	
COc1ccnc(N2CCN(c3nc(Nc4cc(C5CC5)[nH]n4)c4cc(Cl)ccc4n3)CC2)c1 [Compound 8b, 6-Chloro-N-(5-cyclopropyl-1H-pyrazol-3-yl)-2-(4-(4-methoxypyridin-2-yl)piperazin-1-yl)quinazolin-4-amine]	210.3 to 211.6	380	
Clc1ccc2nc(N3CCC(N4CCCCC4)CC3)nc(Nc3cc(C4CC4)[nH]n3)c2c1 [Compound 6a, ([1,4′-Bipiperidin]-1′-yl)-6-chloro-N-(5-cyclopropyl-1H-pyrazol-3-yl)quinazolin-4-amine]	208.3 to 209.6	440	
Cc1cnc(N2CCN(c3nc(Nc4cc(C5CC5)[nH]n4)c4cc(Cl)ccc4n3)CC2)nc1 [Compound 9b, 6-Chloro-N-(5-cyclopropyl-1H-pyrazol-3-yl)-2-(4-(5-methylpyrimidin-2-yl)piperazin-1-yl)quinazolin-4-amine]	262.8 to 264.7	110	
FC(F)(F)c1ccc(N2CCN(c3nc(Nc4cc(C5CC5)[nH]n4)c4cc(Cl)ccc4n3)CC2)cc1 [Compound 7d, 6-Chloro-N-(5-cyclopropyl-1H-pyrazol-3-yl)-2-(4-(4-(trifluoromethyl)phenyl)piperazin-1-yl)quinazolin-4-amine]	256.4 to 257.8	650	
Clc1ccc(N2CCN(c3nc(Nc4cc(C5CC5)[nH]n4)c4cc(Cl)ccc4n3)CC2)cc1 [Compound 7e, 6-Chloro-2-(4-(4-chlorophenyl)piperazin-1-yl)-N-(5-cyclopropyl-1H-pyrazol-3-yl)quinazolin-4-amine]	250 to 251.8	160	
Fc1ccc(N2CCN(c3nc(Nc4cc(C5CC5)[nH]n4)c4cc(Cl)ccc4n3)CC2)cc1 [Compound 7i, 6-Chloro-N-(5-cyclopropyl-1H-pyrazol-3-yl)-2-(4-(4-fluorophenyl)piperazin-1-yl)quinazolin-4-amine]	228.8 to 231	200	
Clc1ccc2nc(N3CCC(N4CCOCC4)CC3)nc(Nc3cc(C4CC4)[nH]n3)c2c1 [Compound 6b]	214.3 to 216.6	560	
